Reference: US11523995B2, “Compositions and methods for ablating niche cells in testis and other epithelial cells and methods relating thereto” (Duke University, priority 2017, dated 2022)

How the values were obtained:
Sertoli cells = test: Neonatal testis Sertoli cell selective depletion in vitro (testis tissue culture, immunofluorescence); assay type: cell-based, mouse; conditions: 0.02% BC 10 min, cultured 4 days
Procedure: (§1) Fragments of the mouse testis were incubated with 0.02% BC for 10 min. After washing several times with PBS, tissues were placed atop 1.5% agarose blocks (214530; Difco), prepared and placed in 6 well tissue culture plates (353046; Falcon) with ˜500 μl of 10% FBS+DMEM (11995-065; Gibco) to reach halfway up the side of the block. After culture, tissues were washed in PBS and fixed for immunofluorescence. The dog testis tissues were incubated with 0.02% or 0.03% BC for 10 min and cultured with 10% KnockOut Serum Replacement (KSR) (Invitrogen; 10828-028)+DMEM (Yokonishi, T., et al. Methods in Molecular Biology 927: 479-488 (2013)). The culture incubator was supplied with 5% (vol/vol) carbon dioxide in air and maintained at 37° C.
For cultured neonatal mouse testes, whole-mount immunofluorescence analysis was performed. Samples were fixed overnight with 4% (wt/vol) paraformaldehyde in PBS at 4° C. After several washes in PBTx (PBS plus 1% Triton X-100), samples were incubated in blocking solution (1% PBTx plus 10% FBS and 3% BSA) for 1 h at room temperature. Primary antibodies were diluted in blocking solution and applied to samples for 2 days at 4° C. After several washes in 1% PBT, fluorescent secondary antibodies were applied for 2 days at 4° C.
We incubated a neonatal testis in 0.02% BC solution for 10 min (or PBS as a control), washed the testis several times with PBS and cultured for 4 days at the surface/air interface in wells atop an agarose block (FIG. 1). At the end of that time, the testis was fixed and stained for immunofluorescence analysis using an antibody against the Sertoli cell marker, SOX9 (Sry-box 9). […] Although the number of F4/80 positive macrophages was increased in the interstitium of drug treated testis, other cell types in the testis including GFRα1 (GDNF family receptor al) and E-CAD (Cadherin1)-positive SSCs, and 3βHSD (3β-hydroxysteroid dehydrogenase)-positive Leydig cells were spared.

[1] = test system: Sertoli cells from canine testis; test: Depletion of canine Sertoli cells in vitro (testis fragment culture); assay type: cell-based; conditions: cultured 3 days
Procedure: as §1
Adult mouse testis and canine testis tissues were fixed in 4% (wt/vol) paraformaldehyde in PBS at 4° C. overnight and cryoembedded in OCT compound (Sakura Finetek). Samples were cut into 14-μm-thick cryosections. Incubation with primary antibodies was performed overnight at 4° C., followed by 2 washes, and incubation with secondary antibodies for 1 h at room temperature. Nuclei were counterstained with Hoechst 33342 dye. Samples were mounted on glass slides and imaged with a confocal laser microscope (Zeiss 780).
We used the same procedure as described for the mouse testis to test whether BC could eliminate Sertoli cells from canine testis. Six to 8 […] canine testis tissues were cut into fragments and incubated with 0.02% or 0.03% BC for 10 min (or PBS as a control), washed, and cultured for 3 days (FIG. 4). At the end of that time, the testis was fixed and stained for immunofluorescence analysis using antibodies against SOX9 and the germ cell marker, MVH (mouse vasa homolog). In control tissue, both Sertoli cells and germ cells were detected in seminiferous tubules. […] In control canine testis, GATA-4 positive PMCs and Leydig cells were detected between tubules.

donor spermatogenesis [2] = test: Testicular cell transplantation 7 days post BC treatment; assay type: in vivo, mouse; conditions: CAG-EGFP pup testicular cells transplanted 7 days post BC
Procedure: (§2) 10-15 μl of approximately 1×10^6/ml isolated Sertoli cells or 1×10^8/ml (testicular cells) were injected through the rete testis into the seminiferous tubules of a host mouse on day 4 or day 7 after ablation treatment. A glass needle was back-loaded with the cell suspension and 0.04% Trypan blue to track the efficiency of the injection.
To determine whether the host testes depleted for both Sertoli and germ cells could be used as a scaffold for engraftment of multiple cell types, we performed testicular cell transplantation 7 days post BC treatment (FIG. 7). Nineteen days after testicular cell transplantation from CAG-EGFP pups into a treated host testis, donor Sertoli cells and SSCs colonized. Donor SSCs proliferated with support from donor Sertoli cells, initiated meiosis, and progressed to the spermatocyte stage. EGFP positive leptotene and pachytene spermatocyte were detected. […] Most of these interstitial EGFP bright donor cells were Leydig cells, and some donor PMC colonization was also detected. […] Round spermatids and elongated spermatids generated from donor SSCs with support from donor Sertoli cells were detected in the host testis. In 9/13 testes, donor Sertoli cell and SSC colonization was observed, and full spermatogenesis was detected in 4 of these hosts.

donor spermatogenesis [3] = test: Cryopreserved donor testicular cell transplantation into BC treated testis; assay type: in vivo, mouse; conditions: cryopreserved (39 days) cells transplanted 7 days after BC; eight weeks after transplantation
Procedure: After dissociation and washing steps, samples were placed in 2.0 ml cryovials (Corning, N.Y., USA) containing 500 μl of cryopreservation medium, (10% FBS+DMEM containing 10% DMSO). Samples were placed in a controlled freezing device (Mr. Frosty™ Freezing Container, Thermo Fisher Scientific) and cooled in a −80° C. freezer overnight. The following morning the cryovials were transferred to Liquid nitrogen for storage. Prior to use, samples were thawed quickly in a bath warmed to 37° C.
as §2
To test the efficiency of engraftment using cryopreserved donor tissue, we dissociated testis tissue from CAG-EGFP pups, and cryopreserved cells with cryoprotectant including 10% DMSO in liquid nitrogen. Seven days after BC treatment of wild type host mice, cryopreserved (39 days) donor testicular cells were thawed and introduced into the rete testis (FIG. 8). […] In some tubules, cryopreserved Sertoli cells supported host spermatogenesis, and in other tubules, cryopreserved donor Sertoli cells colonized with donor SSCs and supported donor spermatogenesis.

enteric nerve plexus = conditions: GI tract treated in vivo; cited from earlier work

Which results are given for benzalkonium chloride [BC]?
Sertoli cell elimination (SOX9 immunofluorescence) (Sertoli cells): specifically eliminated Sertoli cells; effect on other testis cell types (GFRα1 and E-CAD-positive SSCs, 3βHSD-positive Leydig cells) (Sertoli cells): spared; number of F4/80 positive macrophages in the interstitium (Sertoli cells): increased; Sertoli cell depletion (SOX9) ([1]; 0.02% BC 10 min): Sertoli cells were depleted, particularly from the peripheral regions of the tissue; SSC survival in Sertoli-depleted seminiferous tubules ([1]; 0.03% BC 10 min): some SSCs survived; Sertoli cell depletion (SOX9) ([1]; 0.03% BC 10 min): all Sertoli cells were absent; effect on PMCs, SSCs and Leydig cells ([1]; 0.03% BC 10 min): caused some PMC depletion, and reduced the number of SSCs and Leydig cells; hosts with full spermatogenesis (of the colonized testes) (donor spermatogenesis [2]): 4; testes with donor Sertoli cell and SSC colonization (donor spermatogenesis [2]): 9/13; host testes colonized by cryopreserved Sertoli cells and SSCs (donor spermatogenesis [3]): 3/3; hosts with full spermatogenesis from donor cells (donor spermatogenesis [3]): 2; removal of enteric nerve plexus (enteric nerve plexus): remove the mouse and rat enteric nerve plexus
